Legend:
Type in all cases: biochemical
[1] = target: T1, native mitochondrial carnitine/acylcarnitine carrier (CAC) (Rattus norvegicus, UniProt P97521); assay: [3H]carnitine/carnitine antiport in proteoliposomes reconstituted with native CAC from rat liver mitochondria; settings: 10 min incubation, 0.1 mM [3H]carnitine, pH 7.0, read-out: IC50 for itaconate inhibition of [3H]carnitine/carnitine antiport
T1 construct: from tissue; host or cells: rat liver mitochondria
T1 sequence (P97521 1-301): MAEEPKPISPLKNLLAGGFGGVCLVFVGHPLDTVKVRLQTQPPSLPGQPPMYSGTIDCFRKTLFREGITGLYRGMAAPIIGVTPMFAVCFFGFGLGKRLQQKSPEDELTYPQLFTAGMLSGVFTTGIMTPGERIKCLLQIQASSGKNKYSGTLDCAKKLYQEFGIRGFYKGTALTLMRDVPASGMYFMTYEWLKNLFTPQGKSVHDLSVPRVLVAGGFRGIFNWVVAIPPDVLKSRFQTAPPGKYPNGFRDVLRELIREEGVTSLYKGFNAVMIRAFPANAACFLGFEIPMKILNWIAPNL
From the text: (§1) As previously described, recombinant CAC (WT and mutants) and ORC1 proteins were used for proteoliposome formation. For experiments with native CAC, ORC1, or ANT proteins, rat liver mitochondria, or HeLa cell mitochondria, the latter for the CAC alone, were first purified using the standard procedure of cell disruption and differential centrifugation. Then proteins were extracted using 3% Triton X-100 and reconstituted as described for the recombinant proteins. The concentration of intraliposomal carnitine and ornithine was 15 mM and 30 mM, respectively, in all samples.
To test the transport activity of the CAC, 550 μL of proteoliposomes was passed through a Sephadex G-75 column to remove the external substrate. Six hundred μL of the turbid eluate was collected, divided into samples of 100 μL each, and used for transport measurement by the inhibitor-stop method. Transport was started by adding 0.1 mM [^3H]carnitine ([^3H]ornitine or [^3H]ATP) to proteoliposome samples and stopped with 1.5 mM NEM (N-ethylmaleimide) at the indicated time interval. […] Transport rates were measured in 10 min, i.e., within the initial linear range of the time course, at 25 °C. After terminating the transport reaction, the external substrate was removed by chromatography on the Sephadex G-75 column, and the intraliposomal radioactivity was measured. […]

[2] = target: T2, native ornithine/citrulline carrier (ORC, SLC25A15) (Rattus norvegicus, UniProt A0A0G2K309); assay: [3H]ornithine transport in proteoliposomes reconstituted with native ORC; settings: read-out: IC50 for itaconate inhibition
T2 construct: from tissue; host or cells: rat liver mitochondria
T2 sequence (A0A0G2K309 1-301): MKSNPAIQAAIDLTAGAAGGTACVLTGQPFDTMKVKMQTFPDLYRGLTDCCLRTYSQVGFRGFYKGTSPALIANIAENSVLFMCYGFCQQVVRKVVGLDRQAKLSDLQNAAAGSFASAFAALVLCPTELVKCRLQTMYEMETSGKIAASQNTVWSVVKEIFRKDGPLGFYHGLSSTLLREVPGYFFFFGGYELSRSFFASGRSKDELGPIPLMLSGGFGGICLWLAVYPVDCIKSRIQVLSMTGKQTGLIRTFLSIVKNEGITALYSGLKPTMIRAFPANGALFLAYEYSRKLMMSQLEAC
From the text: as §1
(§2) To test the transport activity of the CAC, 550 μL of proteoliposomes was passed through a Sephadex G-75 column to remove the external substrate. […] Transport rates were measured in 10 min, i.e., within the initial linear range of the time course, at 25 °C. After terminating the transport reaction, the external substrate was removed by chromatography on the Sephadex G-75 column, and the intraliposomal radioactivity was measured. […]
Figure 3 Identification of residue responsible for itaconate inhibition. […] Transport activity of the WT (○), C136A (●), C155A (Δ), C23V/C58V/C89S/C155V/C283S (▲), and C23V/C58V/C89S/C136V/C155V/C283S (□) was measured by adding 0.1 mM [^3H]carnitine after treatment by itaconate at the indicated concentrations. […]

[3] = target: T3, recombinant ORC (hORC1) (Homo sapiens, UniProt Q9Y619); assay: [3H]ornithine transport in proteoliposomes reconstituted with recombinant ORC; settings: read-out: IC50 for itaconate inhibition
T3 construct: encodes a full-length hORC1 protein with a His6 tag before the termination codon; His6 (C); made in house; host or cells: E. coli C0214
T3 sequence (Q9Y619 1-301): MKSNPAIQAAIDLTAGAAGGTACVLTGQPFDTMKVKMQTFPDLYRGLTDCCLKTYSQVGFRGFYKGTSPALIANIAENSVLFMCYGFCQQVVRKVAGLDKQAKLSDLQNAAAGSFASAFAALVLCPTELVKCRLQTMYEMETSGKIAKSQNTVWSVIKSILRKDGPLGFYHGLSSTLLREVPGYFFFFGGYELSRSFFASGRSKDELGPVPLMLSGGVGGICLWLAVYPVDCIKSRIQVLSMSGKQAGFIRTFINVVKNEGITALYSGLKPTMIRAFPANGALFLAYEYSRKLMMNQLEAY
From the text: The 903 bp cDNA coding for the hORC1Wild Type (WT) protein was amplified from the Mega Man Human Transcriptome Library with the forward and reverse primers 5′-[…]-3′ and 5′-[…]-3′, containing the NdeI and HindIII sites, respectively. The amplified cDNA was then cloned in the NdeI/HindIII sites of the pET-21a(+) expression vector. The resulting recombinant plasmid, defined as pET-21a(+)-hORC1, encodes a full-length hORC1 protein with a His6 tag before the termination codon. […]
as §2
Figure 3 Identification of residue responsible for itaconate inhibition. […] Transport activity of the WT (○), C136A (●), C155A (Δ), C23V/C58V/C89S/C155V/C283S (▲), and C23V/C58V/C89S/C136V/C155V/C283S (□) was measured by adding 0.1 mM [^3H]carnitine after treatment by itaconate at the indicated concentrations. […] Transport activity was measured by adding 0.1 [^3H]ornithine, respectively, as described in Materials and Methods. […]

C=C(CC(=O)O)C(=O)O [itaconate] gave an IC50 [1] of 11 ± 4.6 mM, an IC50 [2] of 52 ± 5.5 mM and an IC50 [3] of 44 ± 6 mM.

— publication PMC10296061, “Inhibition of the Mitochondrial Carnitine/Acylcarnitine Carrier by Itaconate through Irreversible Binding to Cysteine 136: Possible Pathophysiological Implications” (Biomolecules, 2023)
